Patent US9993518B2, “Association of a tetrapeptide and a glyceryl ester for treating androgenic alopecia” (PIERRE FABRE DERMO-COSMETIQUE, priority 2014, dated 2018)

Columns and labels:
Assay type in all cases: cell-based
Details in all cases: human hair follicles, 6 h, Control RQ = 1, average of two donors
KRT27 gene = KRT27 gene expression in cultured human hair follicle bulbs, quantitative real-time PCR
Method: (§1) Hair follicle bulbs derived from plastic surgery waste (face lifts) from two donors were isolated by microdissection, cultured and treated for 6 hours with the active agents (acetyl tetrapeptide-3, glyceryl laurate, and the association thereof). RNA was extracted, assayed, reverse-transcribed and the expression of a panel of genes expressed in the pilosebaceous follicle was analyzed by quantitative real-time PCR.
(§2) The analysis of the results generated in this study led, for each condition applied and each gene of interest studied, to the calculation of a relative quantity (RQ). RQ corresponds to the expression level of a gene relative to its basal expression level (expression level obtained for the Control condition, the RQ of which is set to 1). Thus, the modulation of a gene's expression level is considered significant when: • the RQ is greater than or equal to 2: the gene is expressed two times more than in the Control condition • the RQ is less than or equal to 0.5: the gene is expressed two times less than in the Control condition.
(§3) The set of results presented below corresponds to the average results obtained for the two donors of the study.

SFRP1 gene = SFRP1 gene expression in cultured human hair follicle bulbs, quantitative real-time PCR
Method: as §1, §2, §3

KRT17 gene = KRT17 gene expression in cultured human hair follicle bulbs, quantitative real-time PCR
Method: as §1, §2, §3

KRT81 gene = KRT81 gene expression in cultured human hair follicle bulbs, quantitative real-time PCR
Method: as §1, §2, §3

FZD1 gene = FZD1 gene expression in cultured human hair follicle bulbs, quantitative real-time PCR
Method: as §1, §2, §3

KRT25 gene = KRT25 gene expression in cultured human hair follicle bulbs, quantitative real-time PCR
Method: as §1, §2, §3

Row | Compound | RQ (relative quantity), expression level of the KRT27 gene (KRT27 gene; 10 μM) | RQ (relative quantity), expression level of the SFRP1 gene (SFRP1 gene; 10 μM) | RQ (relative quantity), expression level of the KRT17 gene (KRT17 gene; 10 μM) | RQ (relative quantity), expression level of the KRT81 gene (KRT81 gene; 10 μM) | RQ (relative quantity), expression level of the FZD1 gene (FZD1 gene; 10 μM) | RQ (relative quantity), expression level of the KRT25 gene (KRT25 gene; 10 μM) | RQ (relative quantity), expression level of the KRT27 gene (KRT27 gene; 20 μM) | RQ (relative quantity), expression level of the SFRP1 gene (SFRP1 gene; 20 μM) | RQ (relative quantity), expression level of the KRT17 gene (KRT17 gene; 20 μM) | RQ (relative quantity), expression level of the KRT81 gene (KRT81 gene; 20 μM) | RQ (relative quantity), expression level of the FZD1 gene (FZD1 gene; 20 μM) | RQ (relative quantity), expression level of the KRT25 gene (KRT25 gene; 20 μM)
1 | CCCCCCCCCCCC(=O)OCC(O)CO (stereo not drawn) [GL, glyceryl laurate] | 1.3 | 0.9 | 1.1 | 1.8 | 1.3 | 1.3 | – | – | – | – | – | –
2 | acetyl tetrapeptide-3 (Ac-KGHK-NH2) [ATP-3, CAS number 827306-88-7] | – | – | – | – | – | – | 1.4 | 1.3 | 0.8 | 1.5 | 1.2 | 1.7
